Measurements taken from EPA's ToxRefDB 2.

Experiments:
mouse [1] = conditions: Carcinogenicity, b6c3f1, Oral, Gavage/Intubation, dose end: 103 week, group: systemic
rat [2] = conditions: Sub-acute repeat dose toxicity, fischer, Oral, Gavage/Intubation, dose end: 14 day, group: systemic
rat [3] = conditions: Carcinogenicity, fischer, Oral, Gavage/Intubation, dose end: 103 week, group: systemic
rat [4] = conditions: Subchronic oral toxicity in rodents, fischer, Gavage/Intubation, dose end: 13 week, group: systemic
mouse [5] = conditions: Subchronic oral toxicity in rodents, b6c3f1, Gavage/Intubation, dose end: 13 week, group: systemic
mouse [6] = conditions: Sub-acute repeat dose toxicity, b6c3f1, Oral, Gavage/Intubation, dose end: 14 day, group: systemic
dog = conditions: Sub-acute repeat dose toxicity; beagle; Injection; Intravenous; dose end: 4 week; group: systemic; systemic / clinical chemistry / alanine aminotransferase (alt/sgpt) / alanine aminotransferase (alt/sgpt) + systemic / clinical chemistry / …
mouse [7] = conditions: Subchronic oral toxicity in rodents, b6c3f1, Feed, dose end: 14 week, group: systemic
mouse [8] = conditions: Prenatal developmental toxicity study, cd1, Oral, Water, dose end: 15 GD
mouse [9] = conditions: Prenatal developmental toxicity study, other, Injection, Intraperitoneal, dose end: 13 GD
rat [10] = conditions: Subchronic oral toxicity in rodents, fischer, Gavage/Intubation, dose end: 14 week, group: systemic
rabbit = conditions: Prenatal developmental toxicity study, other, Injection, Intravenous, dose end: 18 GD
rat [11] = conditions: Prenatal developmental toxicity study, sprague dawley, Oral, Feed, dose end: 15 GD
rat [12] = conditions: Combined chronic toxicity/carcinogenicity; fischer; Oral; Gavage/Intubation; dose end: 2 year; group: systemic; systemic / in life observation / body weight / body weight gain
rat [13] = conditions: Subchronic oral toxicity in rodents, fischer, Feed, dose end: 14 week, group: systemic
mouse [14] = conditions: Subchronic oral toxicity in rodents, b6c3f1, Gavage/Intubation, dose end: 14 week, group: systemic
mouse [15] = conditions: Carcinogenicity, b6c3f1, Oral, Gavage/Intubation, dose end: 2 year, group: systemic
[16] = systemic / pathology microscopic / liver / vacuolization cytoplasmic
[17] = systemic / pathology microscopic / liver / vacuolization cytoplasmic + systemic / in life observation / clinical signs / defecation (…
[18] = systemic / in life observation / body weight / body weight
[19] = systemic / in life observation / body weight / body weight + systemic / in life observation / clinical signs / abnormal posture + systemic…
[20] = systemic / pathology microscopic / liver / vacuolization cytoplasmic + systemic / pathology microscopic / liver / degeneration
[21] = systemic / pathology microscopic / liver / vacuolization cytoplasmic + systemic / pathology microscopic / liver / degeneration + systemic / …
[22] = systemic / pathology microscopic / liver / necrosis + systemic / pathology microscopic / liver / vacuolization cytoplasmic + systemic / in …
[23] = systemic / pathology microscopic / liver / vacuolization cytoplasmic + systemic / in life observation / body weight / body weight + systemic…
[24] = systemic / in life observation / body weight / body weight + systemic / in life observation / body weight / body weight gain
[25] = systemic / in life observation / body weight / body weight + systemic / in life observation / body weight / body weight gain + systemic / …
[26] = group: developmental, systemic / in life observation / body weight / fetal weight
[27] = group: maternal, reproductive / reproductive performance / resorptions / resorptions + systemic / in life observation / body weight / body weight gain + …
[28] = group: developmental, developmental / developmental malformation / general / [other] + developmental / developmental malformation / limb / micromelia + …
[29] = group: developmental, developmental / developmental malformation / paw / digit / ectrodactyly
[30] = group: maternal, reproductive / reproductive performance / resorptions / resorptions + reproductive / offspring survival early / dead fetuses / dead fetuses
[31] = systemic / hematology / mean corpuscular hemoglobin (mch) / mean corpuscular hemoglobin (mch)
[32] = group: developmental, developmental / developmental malformation / bone / [other] + developmental / developmental malformation / bone / supernumerary + …
[33] = group: maternal, reproductive / reproductive performance / aborted / aborted + systemic / in life observation / body weight / body weight + systemic / in …
[34] = group: maternal, reproductive / offspring survival early / litter size / litter size + systemic / in life observation / body weight / body weight gain + …
[35] = group: maternal, systemic / in life observation / water consumption / water consumption
[36] = systemic / hematology / mean corpuscular (cell) volume (mcv) / mean corpuscular (cell) volume (mcv) + systemic / hematology / mean …
[37] = systemic / hematology / neutrophils / neutrophils
[38] = systemic / in life observation / mortality / mortality + systemic / pathology microscopic / liver / glycogen deposition + systemic / …
[39] = systemic / pathology microscopic / liver / glycogen deposition
[40] = systemic / in life observation / body weight / body weight + systemic / in life observation / clinical signs / hyperactivity

OC[P+](CO)(CO)CO.[Cl-] [Tetrakis(hydroxymethyl)phosphonium chloride]
LOAEL (mouse [1]; [16]): 7.5 mg/kg/day | NOAEL (mouse [1]; [16]): < 7.5 mg/kg/day | LEL (mouse [1]; [17]): 7.5 mg/kg/day | NEL (mouse [1]; [17]): < 7.5 mg/kg/day | LEL (rat [2]; [18]): 18.8 mg/kg/day | LOAEL (rat [2]; [18]): 37.5 mg/kg/day | NEL (rat [2]; [19]): 9.4 mg/kg/day | NOAEL (rat [2]; [19]): 18.8 mg/kg/day | LOAEL (rat [3]; [20]): 3.75 mg/kg/day | NOAEL (rat [3]; [20]): < 3.75 mg/kg/day | LEL (rat [3]; [21]): 3.75 mg/kg/day | NEL (rat [3]; [21]): < 3.75 mg/kg/day | NEL (rat [4]; systemic / in life observation / body weight / body weight + systemic / pathology microscopic / liver / necrosis + systemic / pathology …): 3.75 mg/kg/day | LOAEL (rat [4]; [22]): 30 mg/kg/day | NOAEL (rat [4]; [22]): 15 mg/kg/day | LEL (rat [4]; [16]): 7.5 mg/kg/day | LEL (mouse [5]; [16]): 15 mg/kg/day | NEL (mouse [5]; [23]): 4.5 mg/kg/day | NOAEL (mouse [5]; [23]): 15 mg/kg/day | LOAEL (mouse [5]; systemic / pathology microscopic / liver / vacuolization cytoplasmic + systemic / pathology microscopic / liver / necrosis): 45 mg/kg/day | LEL (mouse [6]; [18]): 18.8 mg/kg/day | LOAEL (mouse [6]; [18]): 150 mg/kg/day | NEL (mouse [6]; [18]): < 18.8 mg/kg/day | NOAEL (mouse [6]; systemic / in life observation / body weight / body weight + systemic / in life observation / mortality / mortality): 75 mg/kg/day

Cn1c(=O)c2[nH]cnc2n(C)c1=O [Theophylline]
LEL (dog): 35 mg/kg/day | LOAEL (dog): > 70 mg/kg/day | NEL (dog): 20 mg/kg/day | NOAEL (dog): ≥ 70 mg/kg/day | LOAEL (mouse [7]; [24]): 175 mg/kg/day | NOAEL (mouse [7]; [24]): < 175 mg/kg/day | LEL (mouse [7]; [25]): 175 mg/kg/day | NEL (mouse [7]; [25]): < 175 mg/kg/day | LEL (mouse [8]; [26]): 372 mg/kg/day | LOAEL (mouse [8]; [26]): > 396 mg/kg/day | NEL (mouse [8]; [26]): 282 mg/kg/day | NOAEL (mouse [8]; [26]): ≥ 396 mg/kg/day | LEL (mouse [8]; [27]): 372 mg/kg/day | LOAEL (mouse [8]; [27]): > 396 mg/kg/day | NEL (mouse [8]; [27]): 282 mg/kg/day | NOAEL (mouse [8]; [27]): ≥ 396 mg/kg/day | LOAEL (mouse [9]; [28]): > 200 mg/kg/day | NOAEL (mouse [9]; [28]): ≥ 200 mg/kg/day | LEL (mouse [9]; [29]): 100 mg/kg/day | NEL (mouse [9]; [29]): < 100 mg/kg/day | NEL (mouse [9]; group: maternal, reproductive / reproductive performance / resorptions / resorptions): 150 mg/kg/day | LEL (mouse [9]; [30]): 200 mg/kg/day | LOAEL (mouse [9]; [30]): > 200 mg/kg/day | NOAEL (mouse [9]; [30]): ≥ 200 mg/kg/day | LEL (rat [10]; [31]): 37.5 mg/kg/day | NEL (rat [10]; [31]): < 37.5 mg/kg/day | LOAEL (rat [10]; systemic / pathology microscopic / artery (general) / polyarteritis + systemic / hematology / mean corpuscular (cell) volume (mcv) / mean …): 150 mg/kg/day | NOAEL (rat [10]; systemic / pathology microscopic / artery (general) / polyarteritis + systemic / in life observation / body weight / body weight gain + …): 75 mg/kg/day | LEL (rabbit; group: developmental, developmental / developmental malformation / bone / [other]): 30 mg/kg/day | LOAEL (rabbit; [32]): > 60 mg/kg/day | NEL (rabbit; [32]): 15 mg/kg/day | NOAEL (rabbit; [32]): ≥ 60 mg/kg/day | LOAEL (rabbit; [33]): > 60 mg/kg/day | NEL (rabbit; [33]): 15 mg/kg/day | NOAEL (rabbit; [33]): ≥ 60 mg/kg/day | LEL (rabbit; group: maternal, systemic / urinalysis / volume / volume): 30 mg/kg/day | LEL (rat [11]; [26]): 218 mg/kg/day | LOAEL (rat [11]; [26]): > 259 mg/kg/day | NEL (rat [11]; [26]): 124 mg/kg/day | NOAEL (rat [11]; [26]): ≥ 259 mg/kg/day | LOAEL (rat [11]; [34]): > 259 mg/kg/day | NOAEL (rat [11]; [34]): ≥ 259 mg/kg/day | LEL (rat [11]; [35]): 124 mg/kg/day | NEL (rat [11]; [35]): < 124 mg/kg/day | LEL (rat [12]): 7.5 mg/kg/day | LOAEL (rat [12]): 7.5 mg/kg/day | NEL (rat [12]): < 7.5 mg/kg/day | NOAEL (rat [12]): < 7.5 mg/kg/day | LOAEL (rat [13]; [36]): 125 mg/kg/day | NOAEL (rat [13]; [36]): 75 mg/kg/day | LEL (rat [13]; [37]): 75 mg/kg/day | NEL (rat [13]; [37]): < 75 mg/kg/day | LOAEL (mouse [14]; [38]): > 300 mg/kg/day | NOAEL (mouse [14]; [38]): ≥ 300 mg/kg/day | LEL (mouse [14]; [39]): 75 mg/kg/day | NEL (mouse [14]; [39]): < 75 mg/kg/day | LEL (mouse [15]; [18]): 25 mg/kg/day | LOAEL (mouse [15]; [18]): 25 mg/kg/day | NEL (mouse [15]; [40]): 7.5 mg/kg/day | NOAEL (mouse [15]; [40]): 7.5 mg/kg/day
